These results are taken from patent publication US20260224588A1, “BENZODIAZEPINONE-DERIVED INHIBITORS OF EGFR AND HER2” (The Research Foundation for the State University of New York, priority 2023, published 2026).

The target of one assay is T1, EGFR L858R kinase domain (Homo sapiens, UniProt P00533, L858R).
T1 construct: The EGFR kinase domain (residues 696-1022) was cloned into pTriEx; 6xHis (N, cleaved yes); GST (N, cleaved yes); made in house; host or cells: SF9 insect cells (baculovirus)
The assay can be described thus: HTRF-based activity assay. Type of assay: biochemical. As to the method: (§1) Protein expression and purification. The EGFR kinase domain (residues 696-1022) was cloned into pTriEx with an N-terminal 6×His-glutathione S-transferase (GST) fusion tag followed by a TEV protease cleavage site. EGFR WT, L858R, L858R/T790M, L858R/T790M/C797S was expressed after baculoviral infection in SF9 cells and EGFR(T790M/V948R) was expressed in SF21 cells. Briefly, cells were pelleted and resuspended in lysis buffer composed of 50 mM Tris pH 8.0, 500 mM NaCl, 1 mM tris(2-carboxyethyl)phosphine (TCEP), and 5% glycerol. Cells were lysed via sonication prior to ultracentrifugation at >200,000 g for 1 h. Imidazole pH 8.0 was added to the supernatant for a final concentration of 40 mM and flowed through a column containing Ni-NTA agarose beads. The resin was washed with lysis buffer supplemented with 40 mM imidazole and eluted with lysis buffer containing 200 mM imidazole. Eluted EGFR kinase domain was dialyzed overnight in the presence of 5% (w/w) TEV protease against dialysis buffer containing 50 mM Tris pH 8.0, 500 mM NaCl, 1 mM TCEP, and 5% glycerol. The cleaved protein was passed through Ni-NTA resin to remove the 6×His-GST fusion protein and TEV prior to size exclusion chromatography on a prep-grade Superdex S200 column in 50 mM Tris pH 8.0, 500 mM NaCl, 1 mM TCEP, and 5% glycerol.
(§2) HTRF Assays. Biochemical assays for EGFR domains were carried out using a homogeneous time-resolved fluorescence (HTRF) KinEASE-TK (Cisbio) assay, as described previously. Assays were optimized for ATP concentration of 100 μM with enzyme concentrations WT EGFR 10 nM, L858R 0.1 nM, L858R/T790M at 0.02 nM and L858R/T790M/C797S at 0.02 nM. Inhibitor compounds in DMSO were dispensed directly in 384-well plates with the D300 digital dispenser (Hewlett Packard) followed immediately by the addition of aqueous buffered solutions using the Multidrop Combi Reagent Dispenser (Thermo Fischer). […] The curves were fitted using a non-linear regression model with a sigmoidal dose response.
(Time-resolved FRET reads energy transfer from a long-lived donor to a nearby acceptor.)

In assay [1] the target is T2, EGFR L858R/T790M kinase domain (Homo sapiens, UniProt P00533, L858R/T790M).
T2 construct: The EGFR kinase domain (residues 696-1022) was cloned into pTriEx; 6xHis (N, cleaved yes); GST (N, cleaved yes); made in house; host or cells: SF9 insect cells (baculovirus)
T2 sequence (P00533 696-1022 T790M/L858R): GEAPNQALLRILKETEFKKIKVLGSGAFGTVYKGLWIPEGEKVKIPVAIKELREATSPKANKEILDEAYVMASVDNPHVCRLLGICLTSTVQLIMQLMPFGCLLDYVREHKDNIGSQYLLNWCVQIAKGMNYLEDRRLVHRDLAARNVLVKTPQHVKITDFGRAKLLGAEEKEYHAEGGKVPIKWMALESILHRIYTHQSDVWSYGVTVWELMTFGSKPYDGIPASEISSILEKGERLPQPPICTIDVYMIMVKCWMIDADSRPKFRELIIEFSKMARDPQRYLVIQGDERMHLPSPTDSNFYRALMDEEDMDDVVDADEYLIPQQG
The assay can be described thus: HTRF-based activity assay. Type of assay: biochemical. How it is done:
as §1, §2

Assay [2] addresses T3, EGFR L858R/T790M/C797S kinase domain (Homo sapiens, UniProt P00533, C797S/L858R/T790M).
T3 construct: The EGFR kinase domain (residues 696-1022) was cloned into pTriEx; 6xHis (N, cleaved yes); GST (N, cleaved yes); made in house; host or cells: SF9 insect cells (baculovirus)
The assay can be described thus: HTRF-based activity assay. The assay is classed as biochemical. How it is done: as §1, §2

Assay [3] has as its system EGFR (L858R/T790M) in H1975 lung cancer cells. The assay can be described thus: Western blotting of EGFR, ERK1/2 and AKT phosphorylation. Type of assay: cell-based, human. To be noted: 6 hours treatment. How it is done: FIG. 2. […] All experiments performed after 6 hours treatments of inhibitors or DMSO controls and Western blots are representative of at least three independent experiments.
Western blotting. Cells were collected and lysed with lysis buffer (5M NaCl, 1M TRIS pH 8.0, 10% SDS, 10% Triton X-100 and a tablet of protease inhibitors) and processed for Western blotting analysis. Primary antibodies used; phospho-EGFR (Tyr1068; #2234, 1:1,000), EGFR (#4267; 1:1,000), phospho-AKT (Ser473; #4060, 1:1,000), AKT (#9272, 1:1,000), phospho-ERK1/2 (Thr202/Tyr204; #4370, 1:1,000), and ERK1/2 (#4695, 1:1,000) antibodies; were purchased from Cell Signaling Technology. Secondary Goat anti-rabbit IgG starbright blue 700 and Anti-tubulin hFAB Rhodamine Tubulin were purchased from Bio-rad.
In general terms: Immunoblotting shows a protein as a band on a membrane.

The target of another assay is T4, WT EGFR kinase domain (Homo sapiens, UniProt P00533).
T4 construct: The EGFR kinase domain (residues 696-1022) was cloned into pTriEx; 6xHis (N, cleaved yes); GST (N, cleaved yes); made in house; host or cells: SF9 insect cells (baculovirus)
T4 sequence (P00533 696-1022): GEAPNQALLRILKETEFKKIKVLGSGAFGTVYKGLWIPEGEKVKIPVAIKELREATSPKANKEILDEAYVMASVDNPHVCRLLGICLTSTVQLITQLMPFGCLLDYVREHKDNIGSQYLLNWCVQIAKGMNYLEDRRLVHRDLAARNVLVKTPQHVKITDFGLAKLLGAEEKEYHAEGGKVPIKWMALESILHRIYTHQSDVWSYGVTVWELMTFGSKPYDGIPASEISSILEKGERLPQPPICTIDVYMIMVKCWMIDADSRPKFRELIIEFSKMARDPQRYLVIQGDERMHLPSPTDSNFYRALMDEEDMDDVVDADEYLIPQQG
The assay can be described thus: HTRF-based activity assay. Type of assay: biochemical. As to the method:
as §1, §2

In assay [4] the test system is L858R EGFR mutant Ba/F3 cells. To be noted: cited from earlier work.
Assay [5] deals with wildtype EGFR Ba/F3 cells. To be noted: from literature (footnotes a, c), read-out: Anti-proliferative EC50 ± SE, wt; cited from earlier work.
For assay [6], the system named is L858R/T790M EGFR mutant Ba/F3 cells. Conditions: from literature (footnotes a, c), read-out: Anti-proliferative EC50 ± SE, LR/TM; cited from earlier work.
The test system of assay [7] is wildtype HER2 Ba/F3 cells. Conditions: from Heppner et al. 2022, read-out: Anti-proliferative EC50 ± SE, HER2; cited from earlier work.
Setting [8] is: 100 μM ATP, enzyme 0.1 nM, read-out: Biochemical EGFR IC50, LR.
The mark [9] stands for this setting: 100 μM ATP, enzyme 0.02 nM, read-out: Biochemical EGFR IC50, LRTM.
Setting [10] is: 100 μM ATP, enzyme 0.02 nM, read-out: Biochemical EGFR IC50, LRTMCS.
Setting [11] is: from literature (footnotes a, c), read-out: Anti-proliferative EC50 ± SE, LR.

“Also recorded” adds a separate entry of the source. Read-outs that look alike come from different tables or passages of the source. A value given as a limit tells only on which side of the number the result lay.

By IC50 is commonly meant the concentration that inhibits the measured activity by half.

T1 sequence (P00533 696-1022 L858R): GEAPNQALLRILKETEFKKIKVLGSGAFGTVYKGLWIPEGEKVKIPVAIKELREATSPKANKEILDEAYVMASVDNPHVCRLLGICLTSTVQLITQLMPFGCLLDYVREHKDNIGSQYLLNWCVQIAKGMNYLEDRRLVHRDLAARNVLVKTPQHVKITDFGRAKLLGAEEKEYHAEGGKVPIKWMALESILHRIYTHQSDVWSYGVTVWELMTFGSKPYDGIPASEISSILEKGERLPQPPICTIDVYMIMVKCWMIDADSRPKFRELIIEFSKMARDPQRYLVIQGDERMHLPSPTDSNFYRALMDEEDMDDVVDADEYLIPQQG
T3 sequence (P00533 696-1022 T790M/C797S/L858R): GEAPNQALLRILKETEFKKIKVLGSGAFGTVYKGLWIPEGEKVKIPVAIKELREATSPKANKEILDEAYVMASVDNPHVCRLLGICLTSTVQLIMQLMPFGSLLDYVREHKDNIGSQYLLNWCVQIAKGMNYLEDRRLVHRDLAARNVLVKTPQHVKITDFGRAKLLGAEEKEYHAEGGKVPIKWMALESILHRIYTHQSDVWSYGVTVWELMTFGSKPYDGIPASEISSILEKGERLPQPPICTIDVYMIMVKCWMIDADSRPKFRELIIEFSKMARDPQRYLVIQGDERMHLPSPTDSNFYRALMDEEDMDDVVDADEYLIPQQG

`CSc1nc(-c2cccc(NC(=O)c3cccc4c3NC(=O)c3ccccc3N4)c2)c(-c2ccnc(NC(C)=O)c2)[nH]1` [Compound 2, N-(3-(5-(2-Acetamidopyridin-4-yl)-2-(methylthio)-1H-imidazol-4-yl)phenyl)-11-oxo-10,11-dihydro-5H-dibenzo[b,e][1,4]diazepine-9-carboxamide]: the results for the IC50 (on EGFR L858R kinase domain (setting [8]); in assay [1] (setting [9]); in assay [2] (setting [10])) were 1.5 ± 0.1 nM, 0.059 ± 0.005 nM and 0.064 ± 0.004 nM, respectively. Besides, the “EGFR, ERK1/2 and AKT phosphorylation (Western blot)” value in assay [3] is recorded as “less effective; also recorded: suppresses EGFR phosphorylation”.

In the case of `CCc1nc(-c2cccc(NC(=O)c3cccc4c3NC(=O)c3ccccc3N4)c2)c(-c2ccnc(Nc3ccccc3)c2)[nH]1` [Compound 5, N-(3-(2-ethyl-5-(2-(phenylamino)pyridin-4-yl)-1H-imidazol-4-yl)phenyl)-11-oxo-10,11-dihydro-5H-dibenzo[b,e][1,4]diazepine-9-carboxamide], the half-maximal inhibitory concentration (IC50) on EGFR L858R kinase domain (setting [8]) is 1.1 ± 0.2 nM; in assay [1] (setting [9]), 0.87 ± 0.09 nM; in assay [2] (setting [10]), 1 ± 0.1 nM; on WT EGFR kinase domain (100 μM ATP, enzyme 10 nM, read-out: Biochemical EGFR IC50, wt) it was below 10 nM.

For `CCc1nc(-c2cccc(NC(=O)c3cccc4c3NC(=O)c3ccccc3N4)c2)c(-c2ccnc(NC(C)=O)c2)[nH]1` [Compound 3, N-(3-(5-(2-Acetamidopyridin-4-yl)-2-ethyl-1H-imidazol-4-yl)phenyl)-11-oxo-10,11-dihydro-5H-dibenzo[b,e][1,4]diazepine-9-carboxamide], the IC50 on EGFR L858R kinase domain (setting [8]) was 1.2 ± 0.09 nM; in [1] (setting [9]), 0.051 ± 0.005 nM; in assay [2] (setting [10]) it was 0.063 ± 0.005 nM.

With `CSc1nc(-c2cccc(CN3C(=O)c4ccccc4Nc4ccc(F)cc43)c2)c(-c2ccnc(NC(C)=O)c2)[nH]1` [Compound 1, N-(4-(4-(3-((8-Fluoro-11-oxo-5,11-dihydro-10H-dibenzo[b,e][1,4]diazepin-10-yl)methyl)phenyl)-2-(methylthio)-1H-imidazol-5-yl)pyridin-2-yl) acetamide], the IC50 on EGFR L858R kinase domain (setting [8]) was 1300 ± 100 nM; on EGFR L858R kinase domain (read-out: IC50 values, LR), above 1000 nM; in assay [1] (read-out: IC50 values, LRTM), above 1000 nM; in [2] (read-out: IC50 values, LRTMCS), above 1000 nM; at WT EGFR kinase domain (read-out: IC50 values, WT EGFR), above 1000 nM.

Turning to `O=C1c2ccccc2Nc2ccc(F)cc2N1Cc1ccccc1` [DDC4002], the EC50 is above 10000 nM in [4] (experiments that include cetuximab, from De Clercq and Heppner et al. 2019, read-out: Anti-proliferative EC50 ± SE, LR); above 10000 nM in assay [4] (setting [11]).

For the molecule `C=CC(=O)Nc1cc(Nc2nccc(-c3cn(C)c4ccccc34)n2)c(OC)cc1N(C)CCN(C)C` [Osimertinib], the EC50 is 110 ± 40 nM in assay [5], 3.3 ± 0.6 nM in [4] (setting [11]), 8 nM in [6] and 34 ± 8 nM in assay [7].
